Reference: patent US7915276B2, “Berberrubine derivatives having antifungal activities” (priority 2006, dated 2011)

Experiments:
[1] = target: T1, chitin synthase 2 of Saccharomyces cerevisiae ECY38-38A(pAS6) (Saccharomyces cerevisiae, UniProt P14180); assay: In vitro enzyme assay for chitin synthase 2 of Saccharomyces cerevisiae (enzyme 2); type: biochemical; conditions: relative to polyoxin D (50% inhibitory activity = value 5)
T1 construct: made in house; host or cells: Saccharomyces cerevisiae ECY38-38A (chs1-23 chs2::LEU2 cal1/csd2) carrying plasmid pAS6, grown in galactose medium; 130,000 x g membrane pellet
T1 sequence (P14180 whole entry): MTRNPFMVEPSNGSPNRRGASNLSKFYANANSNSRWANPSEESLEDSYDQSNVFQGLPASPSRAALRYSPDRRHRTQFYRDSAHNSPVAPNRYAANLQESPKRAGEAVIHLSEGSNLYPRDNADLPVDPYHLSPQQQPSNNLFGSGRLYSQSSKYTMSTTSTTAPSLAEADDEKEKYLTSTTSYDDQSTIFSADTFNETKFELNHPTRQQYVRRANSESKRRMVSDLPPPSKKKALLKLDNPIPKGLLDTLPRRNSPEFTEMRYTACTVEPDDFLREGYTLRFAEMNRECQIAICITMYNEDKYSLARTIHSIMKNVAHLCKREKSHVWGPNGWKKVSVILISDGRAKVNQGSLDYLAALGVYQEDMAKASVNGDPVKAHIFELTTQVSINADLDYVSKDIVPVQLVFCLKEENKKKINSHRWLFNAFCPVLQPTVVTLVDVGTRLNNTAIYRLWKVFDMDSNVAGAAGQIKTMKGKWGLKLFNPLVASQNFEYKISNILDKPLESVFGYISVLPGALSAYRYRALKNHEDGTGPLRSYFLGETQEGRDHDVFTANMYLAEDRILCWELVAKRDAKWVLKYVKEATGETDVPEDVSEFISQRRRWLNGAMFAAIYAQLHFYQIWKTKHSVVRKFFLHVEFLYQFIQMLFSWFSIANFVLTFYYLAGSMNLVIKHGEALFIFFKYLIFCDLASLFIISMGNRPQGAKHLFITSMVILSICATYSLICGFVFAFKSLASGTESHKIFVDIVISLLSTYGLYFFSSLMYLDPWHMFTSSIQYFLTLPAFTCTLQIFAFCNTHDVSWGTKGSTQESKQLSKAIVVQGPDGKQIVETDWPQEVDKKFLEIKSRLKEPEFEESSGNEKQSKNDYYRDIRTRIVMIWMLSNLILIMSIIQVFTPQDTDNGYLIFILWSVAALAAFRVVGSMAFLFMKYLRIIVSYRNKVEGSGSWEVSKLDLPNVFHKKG
In short: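 Crude membrane chitin synthase 2 came from S. cerevisiae ECY38-38A(pAS6), expressing only CHS2, and was trypsin-activated (15 min, 30 °C) then trypsin-inhibited. The reaction ran in 32 mM Tris-HCl pH 7.5, 2 mM cobalt acetate, 1.1 mM UDP-[14C]-GlcNAc, 90 min at 30 °C. TCA-precipitated product was counted by scintillation; scores 1–8 reflect concentration relative to polyoxin D's 50% inhibition (score 5).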

[2] = Acute toxicity in mice; type: in vivo, ICR mice; conditions: for Acute toxicity LD50: ICR mouse, male
Method: Each compound was suspended in 1% carboxymethylcellulose (CMC), and orally and abdominally administered to 6-week-old male ICR mice. […] Then, an autopsy was performed on the mice.

[3] = target: T2, chitin synthase 1 of Candida albicans chs2 Δ chs 3 Δ (Candida albicans, UniProt P23316); assay: In vitro enzyme assay for chitin synthase 1 of Candida albicans (enzyme 1); type: biochemical; conditions: relative to polyoxin D (50% inhibitory activity = value 5)
T2 construct: Crude enzyme was prepared using the Candida albicans chs2 Δ chs 3 Δ mutant; endogenous in cells; host or cells: Candida albicans chs2Δ/chs2Δ chs3Δ/chs3Δ mutant; 130,000 x g membrane pellet
T2 sequence (P23316 whole entry, stated change not applied): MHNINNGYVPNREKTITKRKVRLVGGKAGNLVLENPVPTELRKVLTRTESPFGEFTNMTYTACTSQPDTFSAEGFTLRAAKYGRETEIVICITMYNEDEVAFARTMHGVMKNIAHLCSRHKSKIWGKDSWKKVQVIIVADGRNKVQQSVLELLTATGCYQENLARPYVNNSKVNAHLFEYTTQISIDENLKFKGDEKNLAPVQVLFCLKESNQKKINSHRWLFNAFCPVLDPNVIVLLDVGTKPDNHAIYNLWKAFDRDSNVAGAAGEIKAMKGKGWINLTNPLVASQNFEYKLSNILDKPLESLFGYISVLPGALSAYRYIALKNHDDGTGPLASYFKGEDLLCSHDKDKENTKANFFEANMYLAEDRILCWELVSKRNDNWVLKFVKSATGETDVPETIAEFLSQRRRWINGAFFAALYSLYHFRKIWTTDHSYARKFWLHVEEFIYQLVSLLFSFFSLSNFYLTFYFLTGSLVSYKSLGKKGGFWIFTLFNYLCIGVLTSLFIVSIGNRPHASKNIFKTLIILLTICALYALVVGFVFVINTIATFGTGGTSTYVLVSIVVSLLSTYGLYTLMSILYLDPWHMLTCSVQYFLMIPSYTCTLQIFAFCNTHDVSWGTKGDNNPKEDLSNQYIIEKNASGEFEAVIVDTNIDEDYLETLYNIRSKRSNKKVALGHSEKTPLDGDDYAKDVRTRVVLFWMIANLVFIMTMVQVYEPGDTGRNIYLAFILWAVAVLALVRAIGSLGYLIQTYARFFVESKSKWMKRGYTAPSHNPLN
In short: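 Crude membrane enzyme from the C. albicans chs2Δ chs3Δ strain was trypsin-activated for 15 min at 30 °C. Reaction: 32 mM Tris-HCl pH 7.5, 2 mM cobalt acetate, 1.1 mM UDP-[14C]GlcNAc, 90 min at 30 °C; TCA-insoluble radioactivity counted. Scored 1–8 by relative polyoxin D concentration (5 = equal).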

[4] = system: human pathogenic fungi; assay: Antifungal activity against human pathogenic fungi (summary statements); type: cell-based
Source text: Candida albicans ATCC 10231, Candida lusitaniae ATCC 42720, Candida krusei ATCC 6258, Candida tropicalis ATCC 13803, Candida glabrata ATCC 48435, Candida parapsilosis ATCC 34136, Cryptococcus neoformans ATCC 36556, Aspergillus fumigatus ATCC 16424, Aspergillus flavus ATCC 64025, Aspergillus terreus ATCC 46941 and Mucor ramosissimus ATCC 90286 strains for the MIC (minimum inhibitory concentration) measurement were obtained from ATCC (American Type Culture Collection) in the U.S. The Candida albicans A207(clinical isolate) strain was used by isolating it from the patients.
The determination of MIC was performed according to the NCCLS (National Committee for Clinical Laboratory Standard) method. Each test sample solution was diluted two-fold and inoculated with a fungal suspension to reach a final inoculum size of 5×10^2 to 2.5×10^3 cell/mL. The Cryptococcus neoformans strain was cultured in the RPMI 1640 medium for 72 hours. Other strains were cultured for 48 hours.

[5] = system: chitin synthases; assay: Inhibitory activity against the chitin synthases (summary statements); type: biochemical
Source text: The inhibitory activities against the chitin synthase 1 of Candida albicans chs2 Δ chs 3 Δ (abbreviated as ‘enzyme 1’) and the chitin synthase 2 of Saccharomyces cerevisiae ECY38-38A(pAS6)(abbreviated as ‘enzyme 2’) was examined for compound Nos. 1 to 70 compound and polyoxin D, a positive control compound.
The inhibitory activity against the chitin synthase 1 prepared from Candida albicans and the chitin synthase 2 prepared from Saccharomyces cerevisiae were examined as follows. A reaction mixture containing 32 mM Tris-HCl (pH 7.5), 2 mM cobalt acetate, 1.1 mM UDP-[U-^14C]-N-acetyl-d-glucosamine (GlcNAc) (400,000 cpm/μmol), 2 μL of trypsin (0.75 mg/mL), 20 μL of each crude enzyme and 14 μL of each test sample was kept at 30° C. for 15 minutes to activate the enzyme. Then, 2 μL of trypsin inhibitor (1.5 mg/mL) was added and the mixture was kept in an ice bath for 10 minutes to deactivate trypsin. 2 μL of 0.8 M N-acetyl-d-glucosamine was added to a total volume of 50 μL and reaction was performed at 30° C. for 90 minutes. The reaction was stopped using 1 mL of 10% TCA solution and the reaction solution was filtered with a GF/C filter and dried at room temperature. After adding 3 mL of a scintillation cocktail solution, the amount of isotopes was measured using a liquid scintillation counter. Percentage inhibition against each enzyme was calculated by the following Equation 1.

[6] = system: Candida albicans A207 (clinical isolate); assay: In vitro antifungal activity (MIC), NCCLS method; type: cell-based; conditions: 48 hours
In short: (§1)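 Broth MIC by NCCLS two-fold dilution, final inoculum 5×10^2 to 2.5×10^3 cell/mL. Candida and Mucor strains incubated 48 hours.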

[7] = system: Aspergillus terreus ATCC 46941; assay: In vitro antifungal activity (MIC), NCCLS method; type: cell-based; conditions: 48 hours
In short: (§2)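 Broth microdilution per NCCLS: two-fold serial dilutions of test compound inoculated with fungal suspension at a final 5×10^2 to 2.5×10^3 cell/mL. Strains other than Cryptococcus neoformans were incubated 48 hours before MIC reading.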

[8] = system: Aspergillus fumigatus ATCC 16424; assay: In vitro antifungal activity (MIC), NCCLS method; type: cell-based; conditions: 48 hours
In short: as §2

[9] = system: Candida krusei ATCC 6258; assay: In vitro antifungal activity (MIC), NCCLS method; type: cell-based; conditions: 48 hours
In short: as §1

[10] = system: Candida glabrata ATCC 48435; assay: In vitro antifungal activity (MIC), NCCLS method; type: cell-based; conditions: Candida glabrata ATCC 48435; 48 hours
In short: as §1

[11] = system: Candida parapsilosis ATCC 34136; assay: In vitro antifungal activity (MIC), NCCLS method; type: cell-based; conditions: Candida parapsilosis ATCC 34136; 48 hours
In short: as §1

[12] = system: Cryptococcus neoformans ATCC 36556; assay: In vitro antifungal activity (MIC), NCCLS method; type: cell-based; conditions: RPMI 1640 medium, 72 hours
In short: as §2

[13] = system: Aspergillus flavus ATCC 64025; assay: In vitro antifungal activity (MIC), NCCLS method; type: cell-based; conditions: 48 hours
In short: as §2

[14] = system: Candida lusitaniae ATCC 42720; assay: In vitro antifungal activity (MIC), NCCLS method; type: cell-based; conditions: 48 hours
In short: as §1

[15] = system: Candida tropicalis ATCC 13803; assay: In vitro antifungal activity (MIC), NCCLS method; type: cell-based; conditions: 48 hours
In short: as §1

[16] = system: Mucor ramosissimus ATCC 90286; assay: In vitro antifungal activity (MIC), NCCLS method; type: cell-based; conditions: 48 hours
In short: as §1

[17] = system: Candida albicans ATCC 10231; assay: In vitro antifungal activity (MIC), NCCLS method; type: cell-based; conditions: 48 hours
In short: as §1

Substance | Relative activity Enzyme 2 [1] | Acute toxicity LD50 ([2]; abdominal) [mg/kg] | Acute toxicity LD50 ([2]; oral) [mg/kg] | Relative activity Enzyme 1 [3] | antifungal activities compared with amphotericin B (in words) [4] | inhibitory activities against the chitin synthases (in words) [5] | MIC (minimum inhibitory concentration) [6] [µg/mL] | MIC (minimum inhibitory concentration) [7] [µg/mL] | MIC (minimum inhibitory concentration) [8] [µg/mL] | MIC (minimum inhibitory concentration) [9] [µg/mL] | MIC (minimum inhibitory concentration) [10] [µg/mL] | MIC (minimum inhibitory concentration) [11] [µg/mL] | MIC (minimum inhibitory concentration) [12] [µg/mL] | MIC (minimum inhibitory concentration) [13] [µg/mL] | MIC (minimum inhibitory concentration) [14] [µg/mL] | MIC (minimum inhibitory concentration) [15] [µg/mL] | MIC (minimum inhibitory concentration) [16] [µg/mL] | MIC (minimum inhibitory concentration) [17] [µg/mL] | other results
13-(4-Isopropylbenzyl)-9-O-butylberberrubine chloride [Compound No. 50] | 7 (compounds having the inhibitory activity at ½, ¼ and ⅛ lower concentrations than that of polyoxin D were given the values of 6, 7 and 8, respectively) | >15 | >1000 | 4 (Compounds having the inhibitory activity at 2-fold, 4-fold, 8-fold and 16-fold higher concentrations than that of polyoxin D were given the values of 4, 3, 2 and 1, respectively) | comparable to that of amphotericin B | exceptionally superior inhibitory activities | 0.5 | 8 | 2 | 1 | 4 | 4 | 1 | 8 | 0.5 | 0.25 | 4 | 0.5 | 
13-(4-tert-Butylbenzyl)-9-O-butylberberrubine iodide [Compound No. 8] | 7 (compounds having the inhibitory activity at ½, ¼ and ⅛ lower concentrations than that of polyoxin D were given the values of 6, 7 and 8, respectively) | >15 | >1000 | 4 (Compounds having the inhibitory activity at 2-fold, 4-fold, 8-fold and 16-fold higher concentrations than that of polyoxin D were given the values of 4, 3, 2 and 1, respectively) | comparable to that of amphotericin B | exceptionally superior inhibitory activities | 0.5 | 8 | 2 | 2 | 4 | 4 | 1 | 8 | 1 | 0.25 | 4 | 0.5 | deaths ([2]; mice, oral administration dosage of 1,000 mg/kg): no case of death observed; Autopsy findings ([2]; mouse, in vivo): Nothing; general symptoms and body weight ([2]; mouse, in vivo): no abnormalities; Autopsy findings ([2]; mouse, in vivo, po): Nothing
13-(4-tert-Butylbenzyl)-9-O-propylberberrubine iodide [Compound No. 7] | 7 (compounds having the inhibitory activity at ½, ¼ and ⅛ lower concentrations than that of polyoxin D were given the values of 6, 7 and 8, respectively) |  |  | 4 (Compounds having the inhibitory activity at 2-fold, 4-fold, 8-fold and 16-fold higher concentrations than that of polyoxin D were given the values of 4, 3, 2 and 1, respectively) | comparable to that of amphotericin B | exceptionally superior inhibitory activities | 1 | 8 | 4 | 2 | 4 | 4 | 2 | 8 | 2 | 0.5 | 4 | 1 | 
